Measured values as given in ChEMBL document CHEMBL1146328, “Binding mode and affinity studies of DNA-binding agents using topoisomerase I DNA unwinding assay” (Bioorg Med Chem Lett, 2007).

Legend:
[1] = target: T1, DNA topoisomerase 1 (Homo sapiens) (UniProt P11387); assay: Binding affinity to topoisomerase 1 assessed as concentration needed for complete DNA re-supercoiling by Topo1 assay
T1 sequence (whole entry): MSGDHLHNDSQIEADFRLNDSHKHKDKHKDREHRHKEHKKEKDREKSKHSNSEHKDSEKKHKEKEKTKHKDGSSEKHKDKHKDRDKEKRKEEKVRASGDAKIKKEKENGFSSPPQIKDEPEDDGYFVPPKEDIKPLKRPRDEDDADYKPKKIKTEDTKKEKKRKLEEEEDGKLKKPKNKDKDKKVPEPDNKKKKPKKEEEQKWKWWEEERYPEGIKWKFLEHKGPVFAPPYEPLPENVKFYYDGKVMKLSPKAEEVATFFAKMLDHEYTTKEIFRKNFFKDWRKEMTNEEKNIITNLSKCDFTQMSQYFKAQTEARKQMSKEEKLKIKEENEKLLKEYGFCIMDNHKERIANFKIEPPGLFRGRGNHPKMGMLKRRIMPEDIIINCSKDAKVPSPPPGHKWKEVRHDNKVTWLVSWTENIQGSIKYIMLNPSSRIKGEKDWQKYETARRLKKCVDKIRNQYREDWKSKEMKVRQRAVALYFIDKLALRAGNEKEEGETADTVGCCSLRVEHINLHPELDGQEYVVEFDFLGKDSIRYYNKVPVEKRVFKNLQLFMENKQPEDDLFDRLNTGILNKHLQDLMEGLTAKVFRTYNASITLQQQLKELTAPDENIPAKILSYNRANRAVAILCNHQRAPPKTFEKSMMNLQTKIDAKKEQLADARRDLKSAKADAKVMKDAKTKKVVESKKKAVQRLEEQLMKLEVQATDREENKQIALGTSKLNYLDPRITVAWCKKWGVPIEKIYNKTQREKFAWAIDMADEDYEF

Homo sapiens [2] = species: Homo sapiens; assay: Binding affinity to DNA assessed as thermal melting temperature
[3] = Partition coefficient, log P of the compound; assay type: physicochemical; conditions: octanol/water
Homo sapiens [4] = species: Homo sapiens; assay: Binding affinity to DNA by spectrophotometric titration method
DNA = assay: Binding affinity to calf thymus DNA by ITC method; assay type: nucleic-acid assay; conditions: Bos taurus

Row | SMILES | Activity [1] | ΔTm (Homo sapiens [2]) | logP [3] | K (Homo sapiens [4]) | K (DNA)
1 | CCCC[N+](C)(CCCC)CCCN1C(=O)c2ccc3c4c(ccc(c24)C1=O)C(=O)N(CCC[N+](C)(CCCC)CCCC)C3=O | 5 µM | 4.6 °C | -0.9 | 1 10^5/M | 5.7 10^5/M
2 | C[N+](C)(C)CCCN1C(=O)c2ccc3c4c(ccc(c24)C1=O)C(=O)N(CCC[N+](C)(C)C)C3=O | 3 µM | 7.6 °C | -2.5 | 5 10^5/M | 12.2 10^5/M
